Measurements: article PMC5640650, “NatD promotes lung cancer progression by preventing histone H4 serine phosphorylation to activate Slug expression” (Nature Communications, 2017)

Columns and labels:
[1] = tested on: A549 cells; assay: Expression of EMT genes, A549 cells; type: cell-based, human; settings: vs Scr
Procedure: Cellular proteins were extracted by RIPA lysis buffer at high salt concentration (420 mM NaCl), and western blot analysis was performed in accordance with standard protocols. Scans of enhanced chemiluminescence (ECL) films showing uncropped blots are presented in Supplementary Fig. 10. […]
Total RNA from tissue samples and cultured cells was extracted using TRIzol reagent (Invitrogen). cDNAs were synthesized with a HiScript 1st Strand cDNA Synthesis Kit (Vazyme Biotech, China). Quantitative RT-PCR was performed using a FastStart Universal SYBR Green Master (Roche) according to the manufacturer’s instructions in a Rotor-Gene 6000 (Corbett Research) in a final volume of 20 μl. […]
Supplementary Figure 4. […] (a) Quantitative real-time PCR analysis of mRNA levels of NatD, CCND1, p21, p27, p57, p16, p18, p19, CHEK2, E2F1, CCND2, KRAS, PTEN, c-Myc, and PCNA in scrambled (Scr) and NatD knockdown (NatD-KD) H1299 cells normalized to GAPDH. […] (b) Quantitative real-time PCR analysis of mRNA levels of NatD and key EMT-related genes in Scr and NatD-KD A549 cells normalized to […]
GAPDH served as a loading control. […] (bottom) Cell migration and invasion expressed as a percentage of control. […]

[2] = tested on: A549 cells; assay: Orthotopic implantation in nude mice, A549 cells; type: in vivo, human; settings: pleural cavity, 21 days, n = 6, vs Scr
Procedure: All animal care and handling procedures were performed in accordance with the National Institutes of Health Guide for the Care and Use of Laboratory Animals, and were approved by the Institutional Review Board of Nanjing University (Nanjing, China). Female SCID mice and C57BL/6 mice (6–8 week old) were purchased from the Model Animal Research Center of Nanjing University (Nanjing, China), and were maintained under specific pathogen-free conditions at Nanjing University. The sample size was chosen with adequate power on the basis of the literature and our previous experience[46] and for each experiment it is indicated in the figure legend. […] Lung nodules and progression were monitored and quantified using the bioluminescence system (Caliper IVIS Lumina XR) or by counting under a dissecting microscope. […] Mice were killed at day 28 or day 30 to collect lungs, and lung nodules in serial sections were quantified microscopically. […] Lung nodules and progression were monitored and quantified using the bioluminescence system (Caliper IVIS Lumina XR). Mice were killed at day 14 or day 21 to collect lungs, and lung nodules in serial sections were quantified microscopically. […]
Supplementary Figure 9. […] (right) Relative BLI signals of lung tumors of corresponding mice (n = 6 for each group) recorded on day 3 and day 21. […]

NatD-KD2: Human NatD shRNA KD2: 5′-GGTTGAATGTCTCCATTGA-3′, lentiviral (shRNA lentiviral)
expression of E-cadherin [1]: increased the expression
expression of Slug, N-cadherin, and Vimentin [1]: decreased the expression
migration and invasion, orthotopic model [2]: significantly reduced
